Values after ≈ are worked out from the molar mass of the structure shown. Like-named read-outs stand apart in the source and are kept apart here.
Experiments:
Format in all cases: cell-based
[1] = test system: T. glabrata; assay: MIC distribution, serial dilutions in Sabouraud gentamycin broth, microplates; conditions: # of strains = 10 = UR-4056/15 Bifonzaole
Protocol: (§1) The antifungal activity of 1-[(2-fluorophenyl)(4-fluorophenyl)phenylmethyl]-1H-imidazole and bifonazole was determined by serial dilutions in Sabouraud gentamycin broth using microplates. The antifungal agent was diluted in 50% ethanol to obtain concentrations between 40 and 0.015 mcg/ml. Inoculum was 10^7 cfu/ml for yeast and 10^6 cfu/ml for dermatophytes. Incubation was allowed at 37° C. during 2 days for yeasts, and at 29° C. during 7 days for dermatophytes. MIC's were determined as in example 18. The MIC distributions obtained in 9 organisms are shown in the next tables.

[2] = test system: C. guilliermondii; assay: as above; conditions: # of strains = 5
Protocol: as §1

[3] = test system: C. krusei; assay: as above; conditions: # of strains = 5
Protocol: as §1

[4] = test system: T. rubrum; assay: as above; conditions: # of strains = 6
Protocol: as §1

[5] = test system: C. albicans; assay: as above; conditions: # of strains = 50
Protocol: as §1

[6] = test system: M. canis; assay: as above; conditions: # of strains = 13
Protocol: as §1

[7] = test system: C. tropicalis; assay: as above; conditions: # of strains = 30
Protocol: as §1

[8] = test system: C. parapsilosis; assay: as above; conditions: # of strains 10 = UR-4056/14 = Bifonazole
Protocol: as §1

[9] = test system: T. mentagrohytes; assay: as above; conditions: # of strains = 17
Protocol: as §1

[10] = test system: Microsporum gypseum; assay: In vitro antifungal activity (MIC), agar dilution; conditions: Nannizzia gypsea
Protocol: (§2) The antifungal activity of 1-[(2-fluorophenyl)(4-fluorophenyl)phenylmethyl]-1H-imidazole was shown by its ability to inhibit the growth of different species of yeast and filamentous fungi in vitro. The activity was recorded as the MIC value, that is, the minimum amount of product needed to achieve the complete inhibition of the in vitro growth of the test organism. Testing was performed as follows: a solution of the antifungal agent in ethanol was diluted with DST agar (pH 6.5) or Emmon's Sabouraud dextrose agar to obtain concentrations between 10 and 0.01 mcg/ml, or 80 and 0.16 mcg/m, respectively. The inoculum was standarized in order 1×10^5 cfu/ml, and 10 mcl of each organism was seeded into the agar surface. Incubation was then allowed at 30° C. during 3 days (DST) or 2 days (Emmon's) for yeasts and 10 days for filamentous fungi. Following incubation, the zones of inhibition were measured and compared to an inoculated, drug-free control to yield the MIC value.

[11] = test system: C. parapsilosis (clinica); assay: In vitro antifungal activity (MIC), agar dilution; conditions: Lodderomyces parapsilosis, read-out: MIC
Protocol: as §2

[12] = test system: Rhodotorula rubra; assay: In vitro antifungal activity (MIC), agar dilution
Protocol: as §2

[13] = test system: C. pseudotropicalis ATCC 28838; assay: In vitro antifungal activity (MIC), agar dilution; conditions: Kluyveromyces marxianus, read-out: MIC
Protocol: as §2

[14] = test system: T. mentagrophytes (clinica) (1); assay: In vitro antifungal activity (MIC), agar dilution; conditions: Trichophyton mentagrophytes, read-out: MIC
Protocol: as §2

[15] = test system: C. albicans ATCC 28516; assay: In vitro antifungal activity (MIC), agar dilution; conditions: Candida albicans, read-out: MIC
Protocol: as §2

[16] = test system: C. tropicalis SQ 1647; assay: In vitro antifungal activity (MIC), agar dilution; conditions: Candida tropicalis, read-out: MIC
Protocol: as §2

[17] = test system: Microsporum gypseum (-); assay: In vitro antifungal activity (MIC), agar dilution; conditions: Nannizzia gypsea
Protocol: as §2

[18] = test system: Aspergillus flavus; assay: In vitro antifungal activity (MIC), agar dilution
Protocol: as §2

[19] = test system: T. mentagrophytes (clinica) (5); assay: In vitro antifungal activity (MIC), agar dilution; conditions: Trichophyton mentagrophytes, read-out: MIC
Protocol: as §2

[20] = test system: Aspergillus fumigatus (2); assay: In vitro antifungal activity (MIC), agar dilution; conditions: read-out: MIC
Protocol: as §2

[21] = test system: C. guilliermondii (clinica); assay: In vitro antifungal activity (MIC), agar dilution
Protocol: as §2

[22] = test system: C. guilliermondii SQ 2210; assay: In vitro antifungal activity (MIC), agar dilution; conditions: Meyerozyma guilliermondii, read-out: MIC
Protocol: as §2

[23] = test system: T. glabrata (clinica); assay: In vitro antifungal activity (MIC), agar dilution; conditions: Nakaseomyces glabratus, read-out: MIC
Protocol: as §2

[24] = test system: S. cerevisiae ATCC 9763; assay: In vitro antifungal activity (MIC), agar dilution; conditions: Saccharomyces cerevisiae, read-out: MIC
Protocol: as §2

[25] = Emmon's Sabouraud dextrose agar

With `Fc1ccc(C(c2ccccc2)(c2ccccc2F)n2ccnc2)cc1` (stereo not shown) [UR-4056, 1-[(2-fluorophenyl) (4-fluorophenyl)phenylmethyl]-1H-imidazole] the “MIC Distribution (number of strains)” value ([1]; MIC 0.6) was 1 # of strains, the “MIC Distribution (number of strains)” value ([1]; MIC 2.5) was 1 # of strains and the “MIC Distribution (number of strains)” value ([1]; MIC 5.0) was 2 # of strains. The “MIC Distribution (number of strains)” value ([1]; MIC column 10) was 4 # of strains, the “MIC Distribution (number of strains)” value ([1]; MIC column 20) was 1 # of strains and the “MIC Distribution (number of strains)” value ([1]; MIC column 40 (first)) was 1 # of strains. The “MIC Distribution (number of strains)” value ([2]; MIC 0.3) was 1 # of strains, the “MIC Distribution (number of strains)” value ([2]; MIC 0.6) was 2 # of strains and the “MIC Distribution (number of strains)” value ([2]; MIC column 1.2) was 2 # of strains. For the same molecule, the “MIC Distribution (number of strains)” value ([3]; MIC 0.3) was 1 # of strains, the “MIC Distribution (number of strains)” value ([3]; MIC 2.5) was 2 # of strains and the “MIC Distribution (number of strains)” value ([3]; MIC column 1.2) was 1 # of strains. For the same molecule, the “MIC Distribution (number of strains)” value ([3]; MIC column 40 (first)) was 1 # of strains, the “MIC Distribution (number of strains)” value ([4]; MIC 0.15) was 4 # of strains and the “MIC Distribution (number of strains)” value ([4]; MIC 2.5) was 1 # of strains. For the same molecule, the “MIC Distribution (number of strains)” value ([4]; MIC column 1.2) was 1 # of strains, the “MIC Distribution (number of strains)” value ([5]; MIC 0.3) was 1 # of strains and the “MIC Distribution (number of strains)” value ([5]; MIC 2.5) was 11 # of strains. The “MIC Distribution (number of strains)” value ([5]; MIC 5.0) was 31 # of strains, the “MIC Distribution (number of strains)” value ([5]; MIC column 1.2) was 2 # of strains and the “MIC Distribution (number of strains)” value ([5]; MIC column 10) was 5 # of strains. The “MIC Distribution (number of strains)” value ([6]; MIC 0.3) was 4 # of strains, the “MIC Distribution (number of strains)” value ([6]; MIC 2.5) was 4 # of strains and the “MIC Distribution (number of strains)” value ([6]; MIC column 1.2) was 5 # of strains. The “MIC Distribution (number of strains)” value ([7]; MIC 0.6) was 1 # of strains, the “MIC Distribution (number of strains)” value ([7]; MIC 2.5) was 4 # of strains and the “MIC Distribution (number of strains)” value ([7]; MIC 5.0) was 13 # of strains. For the same molecule, the “MIC Distribution (number of strains)” value ([7]; MIC column 0.078) was 1 # of strains, the “MIC Distribution (number of strains)” value ([7]; MIC column 1.2) was 3 # of strains and the “MIC Distribution (number of strains)” value ([7]; MIC column 10) was 8 # of strains. For the same molecule, the “MIC Distribution (number of strains)” value ([8]; MIC 0.038) was 2 # of strains, the “MIC Distribution (number of strains)” value ([8]; MIC 0.15) was 1 # of strains and the “MIC Distribution (number of strains)” value ([8]; MIC 0.3) was 2 # of strains. For the same molecule, the “MIC Distribution (number of strains)” value ([8]; MIC 0.6) was 2 # of strains, the “MIC Distribution (number of strains)” value ([8]; MIC column 1.2) was 1 # of strains and the “MIC Distribution (number of strains)” value ([8]; MIC column 10) was 2 # of strains. For the same molecule, the “MIC Distribution (number of strains)” value ([9]; MIC 0.15) was 1 # of strains, the “MIC Distribution (number of strains)” value ([9]; MIC 0.3) was 2 # of strains and the “MIC Distribution (number of strains)” value ([9]; MIC 0.6) was 11 # of strains. The “MIC Distribution (number of strains)” value ([9]; MIC column 1.2) was 3 # of strains, the MIC ([10]; DST agar) was 0.5 µg/mL (≈ 1.44 µM) and the MIC [10, 25] was 1.25 µg/mL (≈ 3.61 µM). For the same molecule, the MIC ([11]; DST agar) was 0.5 µg/mL (≈ 1.44 µM), the MIC [11, 25] was 0.08 µg/mL (≈ 0.231 µM) and the MIC ([12]; DST agar) was 0.1 µg/mL (≈ 0.289 µM). For the same molecule, the MIC [12, 25] was 0.08 µg/mL (≈ 0.231 µM), the MIC ([13]; ATCC28838, DST agar) was 0.025 µg/mL (≈ 0.0722 µM) and the MIC ([13]; ATCC28838, Emmon's Sabouraud dextrose agar) was 0.63 µg/mL (≈ 1.82 µM). For the same molecule, the MIC ([14]; DST agar) was 0.1 µg/mL (≈ 0.289 µM), the MIC [14, 25] was 1.25 µg/mL (≈ 3.61 µM) and the MIC ([15]; ATCC28516, DST agar) was 0.5 µg/mL (≈ 1.44 µM). It also gave an MIC ([15]; ATCC28516, Emmon's Sabouraud dextrose agar) of 0.04 µg/mL (≈ 0.115 µM), an MIC ([16]; SQ1647, DST agar) of 1 µg/mL (≈ 2.89 µM) and an MIC ([16]; SQ1647, Emmon's Sabouraud dextrose agar) of 0.63 µg/mL (≈ 1.82 µM). It also gave an MIC ([17]; DST agar) of 0.1 µg/mL (≈ 0.289 µM), an MIC [17, 25] of 0.63 µg/mL (≈ 1.82 µM) and an MIC ([18]; DST agar) of 1 µg/mL (≈ 2.89 µM). It also gave an MIC [18, 25] of 2.5 µg/mL (≈ 7.22 µM), an MIC ([19]; DST agar) of 0.1 µg/mL (≈ 0.289 µM) and an MIC [19, 25] of 1.25 µg/mL (≈ 3.61 µM). It also gave an MIC ([20]; DST agar) of 0.5 µg/mL (≈ 1.44 µM), an MIC [20, 25] of 1.25 µg/mL (≈ 3.61 µM) and an MIC [21, 25] of 5.00 µg/mL (≈ 14.4 µM). For the same molecule, the MIC ([21]; Meyerozyma guilliermondii, DST agar, read-out: MIC) was 5 µg/mL (≈ 14.4 µM), the MIC ([22]; SQ2210, DST agar) was 1 µg/mL (≈ 2.89 µM) and the MIC ([22]; SQ2210, Emmon's Sabouraud dextrose agar) was 0.16 µg/mL (≈ 0.462 µM). It also gave an MIC ([23]; DST agar) of 0.05 µg/mL (≈ 0.144 µM), an MIC [23, 25] of 0.31 µg/mL (≈ 0.895 µM) and an MIC ([24]; ATCC9763, DST agar) of 0.1 µg/mL (≈ 0.289 µM). It also gave an MIC ([24]; ATCC9763, Emmon's Sabouraud dextrose agar) of 0.31 µg/mL (≈ 0.895 µM).

Reference: patent US5149707A, “1-((2-fluorophenyl)(4-fluorophenyl)phenylmethyl)-1H-imidazole useful as antifungal agent” (J. Uriach & Cia, S.A., priority 1988, dated 1992)
